Drawing on patent US8394952B2 (Vertex Pharmaceuticals Incorporated, priority 2006, dated 2013), this text covers Ki for 28 compounds.

Some results are limits rather than exact numbers.

By Ki is commonly meant the equilibrium dissociation constant of an inhibitor or competing ligand from its target. The low end stands for tighter binding, the high end for weaker binding.

Chain of Plk1 (P53350 20-338): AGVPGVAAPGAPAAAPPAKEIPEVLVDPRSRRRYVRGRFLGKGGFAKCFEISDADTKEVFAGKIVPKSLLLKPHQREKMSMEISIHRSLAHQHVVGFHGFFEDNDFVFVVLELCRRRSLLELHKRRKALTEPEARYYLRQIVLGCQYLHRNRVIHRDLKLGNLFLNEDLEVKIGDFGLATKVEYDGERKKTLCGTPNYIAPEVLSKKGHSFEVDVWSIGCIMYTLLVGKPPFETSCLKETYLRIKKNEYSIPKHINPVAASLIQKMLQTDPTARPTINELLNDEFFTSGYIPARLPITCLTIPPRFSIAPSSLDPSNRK

This test has as its target Plk1 (Homo sapiens, UniProt P53350). The test is described as follows: biochemical.
`COc1cc(C(=O)O)ccc1Nc1ncc2c(n1)N(C1CCCC1)CCC(=O)N2C` [Compound I-1, 4-(9-Cyclopentyl-6,7,8,9-tetrahydro-5-methyl-6-oxo-5H-pyrimido[4,5-b][1,4]diazepin-2-ylamino)-3-methoxybenzoic acid] returned a Ki of 10 to 100 nM.

Consider `CN1C(=O)CCN(C2CCCC2)c2nc(Nc3ccc(C(=O)O)cc3)ncc21` [Compound I-3, 4-(9-Cyclopentyl-6,7,8,9-tetrahydro-5-methyl-6-oxo-5H-pyrimido[4,5-b][1,4]diazepin-2-ylamino)-benzoic acid], for which the inhibition constant (Ki) was in the range of 10 to 100 nM.

As to `COc1cc(C(=O)NC2CCN(C(=O)OC(C)(C)C)CC2)ccc1Nc1ncc2c(n1)N(C1CCCC1)CCC(=O)N2C` [Compound I-5, 4-(9-cyclopentyl-6,7,8,9-tetrahydro-5-methyl-6-oxo-5H-pyrimido[4,5-b][1,4]diazepin-2-ylamino)-3-methoxy-N-[1-(tert-butoxycarbonyl)piperidin-4-yl]benzamide], the Ki was < 10 nM.

For `COc1cc(C(=O)NC2CCNCC2)ccc1Nc1ncc2c(n1)N(C1CCCC1)CCC(=O)N2C` [Compound I-6, 4-(9-cyclopentyl-6,7,8,9-tetrahydro-5-methyl-6-oxo-5H-pyrimido[4,5-b][1,4]diazepin-2-ylamino)-3-methoxy-N-(piperidin-4-yl)benzamide], the Ki is < 10 nM.

Regarding `COc1cc(C(=O)N2CCN(C(=O)OC(C)(C)C)CC2)ccc1Nc1ncc2c(n1)N(C1CCCC1)CCC(=O)N2C` [Compound I-7, 4-(9-cyclopentyl-6,7,8,9-tetrahydro-5-methyl-6-oxo-5H-pyrimido[4,5-b][1,4]diazepin-2-ylamino)-3-methoxyphenyl-(4-tert-butoxycarbonypiperazin-1-yl)methanone], the Ki fell in the range of 10 to 100 nM.

`COc1cc(C(=O)N2CCNCC2)ccc1Nc1ncc2c(n1)N(C1CCCC1)CCC(=O)N2C` [Compound I-8, 4-(9-cyclopentyl-6,7,8,9-tetrahydro-5-methyl-6-oxo-5H-pyrimido[4,5-b][1,4]diazepin-2-ylamino)-3-methoxyphenyl(piperazin-1-yl)methanone]: the Ki is 10 to 100 nM.

`CNC(=O)c1ccc(Nc2ncc3c(n2)N(C2CCCC2)CCC(=O)N3C)c(OC)c1` [Compound I-9, 4-(9-cyclopentyl-6,7,8,9-tetrahydro-5-methyl-6-oxo-5H-pyrimido[4,5-b][1,4]diazepin-2-ylamino)-3-methoxy-N-methylbenzamide]: the Ki is < 10 nM.

For the compound `COc1cc(C(=O)O)ccc1Nc1ncc2c(n1)N(C1CCCC1)CC(C)C(=O)N2C` (stereo not shown) [Compound I-10, 4-(9-cyclopentyl-6,7,8,9-tetrahydro-5,7-dimethyl-6-oxo-5H-pyrimido[4,5-b][1,4]diazepin-2-ylamino)-3-methoxybenzoic acid], the Ki was in the range of 10 to 100 nM.

As to `COCCNC(=O)c1ccc(Nc2ncc3c(n2)N(C2CCCC2)CCC(=O)N3C)c(OC)c1` [Compound I-11, 4-(9-cyclopentyl-6,7,8,9-tetrahydro-5-methyl-6-oxo-5H-pyrimido[4,5-b][1,4]diazepin-2-ylamino)-3-methoxy-N-(2-methoxyethyl)benzamide], the Ki is < 10 nM.

For `COc1cc(C(=O)NC2CCN(C)CC2)ccc1Nc1ncc2c(n1)N(C1CCCC1)CC(C)C(=O)N2C` (stereo not shown) [Compound I-12, 4-(9-cyclopentyl-6,7,8,9-tetrahydro-5,7-dimethyl-6-oxo-5H-pyrimido[4,5-b][1,4]diazepin-2-ylamino)-3-methoxy-N-(1-methylpiperidin-4-yl)benzamide], the Ki was < 10 nM.

As for `COc1cc(C(=O)NC2CCN(C)CC2)ccc1Nc1ncc2c(n1)N(C)CCC(=O)N2C` [Compound I-14, 4-(6,7,8,9-tetrahydro-5,9-dimethyl-6-oxo-5H-pyrimido[4,5-b][1,4]diazepin-2-ylamino)-3-methoxy-N-(1-methylpiperidin-4-yl)benzamide], the Ki was 10 to 100 nM.

On to `CNC(=O)c1ccc(Nc2ncc3c(n2)N(C2CCCC2)[C@@H]2CCC[C@@H]2C(=O)N3C)c(OC)c1` [Compound I-15, 4-((3aR,10aS)-4-cyclopentyl-9-methyl-10-oxo-1,2,3,3a,4,9,10,10a-octahydro-4,5,7,9-tetraaza-benzo[f]azulen-6-ylamino)-3-methoxy-N-methylbenzamide], for which the Ki fell in the range of 10 to 100 nM.

Regarding `CNC(=O)c1ccc(Nc2ncc3c(n2)N(C2CCCC2)CC(C)(C)C(=O)N3C)c(OC)c1` [Compound I-16, 4-(9-cyclopentyl-6,7,8,9-tetrahydro-5,7,7-trimethyl-6-oxo-5H-pyrimido[4,5-b][1,4]diazepin-2-ylamino)-3-methoxy-N-methylbenzamide], the Ki was < 10 nM.

As to `CNC(=O)c1ccc(Nc2ncc3c(n2)N(C2CCCC2)C[C@H](C)C(=O)N3C)c(OC)c1` [Compound I-17, 4-((S)-9-cyclopentyl-6,7,8,9-tetrahydro-5,7-dimethyl-6-oxo-5H-pyrimido[4,5-b][1,4]diazepin-2-ylamino)-3-methoxy-N-methylbenzamide], the Ki is < 10 nM.

Consider `CNC(=O)c1ccc(Nc2ncc3c(n2)N(C2CCCC2)C[C@@H](C)C(=O)N3C)c(OC)c1` [Compound I-18, 4-((R)-9-cyclopentyl-6,7,8,9-tetrahydro-5,7-dimethyl-6-oxo-5H-pyrimido[4,5-b][1,4]diazepin-2-ylamino)-3-methoxy-N-methylbenzamide], for which the Ki is < 10 nM.

Turning to `CNC(=O)c1ccc(Nc2ncc3c(n2)N([C@@H]2CCNC2)CC(C)(C)C(=O)N3C)c(OC)c1` [Compound I-19, 4-(6,7,8,9-tetrahydro-5,7,7-trimethyl-6-oxo-9-((R)-pyrrolidin-3-yl)-5H-pyrimido[4,5-b][1,4]diazepin-2-ylamino)-3-methoxy-N-methylbenzamide], the Ki was 10 to 100 nM.

`CNC(=O)c1ccc(Nc2ncc3c(n2)N([C@@H]2CCN(C)C2)CC(C)(C)C(=O)N3C)c(OC)c1` [Compound I-20, 4-(6,7,8,9-tetrahydro-5,7,7-trimethyl-9-((R)-1-methylpyrrolidin-3-yl)-6-oxo-5H-pyrimido[4,5-b][1,4]diazepin-2-ylamino)-3-methoxy-N-methylbenzamide]: the Ki is 10 to 100 nM.

On to `COc1cc(C(=O)NC2CCN(C)CC2)ccc1Nc1ncc2c(n1)N(C1CCCC1)C[C@H](C)C(=O)N2C` [Compound I-21, 4-((S)-9-cyclopentyl-6,7,8,9-tetrahydro-5,7-dimethyl-6-oxo-5H-pyrimido[4,5-b][1,4]diazepin-2-ylamino)-3-methoxy-N-(1-methylpiperidin-4-yl)benzamide], for which the Ki is < 10 nM.

With `COc1cc(C(=O)NC2CCN(C)CC2)ccc1Nc1ncc2c(n1)N(C1CCCC1)C[C@@H](C)C(=O)N2C` [Compound I-22, 4-((R)-9-cyclopentyl-6,7,8,9-tetrahydro-5,7-dimethyl-6-oxo-5H-pyrimido[4,5-b][1,4]diazepin-2-ylamino)-3-methoxy-N-(1-methylpiperidin-4-yl)benzamide], the Ki was < 10 nM.

As for `COc1cc(C(=O)NC2CCN(C)CC2)ccc1Nc1ncc2c(n1)N(C1CCCC1)CC(C)(C)C(=O)N2C` [Compound I-23, 4-(9-cyclopentyl-6,7,8,9-tetrahydro-5,7,7-trimethyl-6-oxo-5H-pyrimido[4,5-b][1,4]diazepin-2-ylamino)-3-methoxy-N-(1-methylpiperidin-4-yl)benzamide], the Ki is < 10 nM.

For the compound `COc1cc(C(=O)Nc2ccncc2)ccc1Nc1ncc2c(n1)N(C1CCCC1)CC(C)(C)C(=O)N2C` [Compound I-24, 4-(9-cyclopentyl-6,7,8,9-tetrahydro-5,7,7-trimethyl-6-oxo-5H-pyrimido[4,5-b][1,4]diazepin-2-ylamino)-3-methoxy-N-(pyridin-4-yl)benzamide], the Ki was < 10 nM.

As to `COc1cc(C(=O)NC2CN(C)C2)ccc1Nc1ncc2c(n1)N(C1CCCC1)CC(C)(C)C(=O)N2C` [Compound I-25, 4-(9-cyclopentyl-6,7,8,9-tetrahydro-5,7,7-trimethyl-6-oxo-5H-pyrimido[4,5-b][1,4]diazepin-2-ylamino)-3-methoxy-N-(1-methylazetidin-3-yl)benzamide], the Ki is < 10 nM.

As to `COc1cc(C(=O)N[C@@H]2CCN(C)C2)ccc1Nc1ncc2c(n1)N(C1CCCC1)CC(C)(C)C(=O)N2C` [Compound I-26, 4-(9-cyclopentyl-6,7,8,9-tetrahydro-5,7,7-trimethyl-6-oxo-5H-pyrimido[4,5-b][1,4]diazepin-2-ylamino)-3-methoxy-N—((R)-1-methylpyrrolidin-3-yl)benzamide], the Ki is < 10 nM.

In the case of `COc1cc(C(=O)NCCc2cncn2C)ccc1Nc1ncc2c(n1)N(C1CCCC1)CC(C)(C)C(=O)N2C` [Compound I-27, 4-(9-cyclopentyl-6,7,8,9-tetrahydro-5,7,7-trimethyl-6-oxo-5H-pyrimido[4,5-b][1,4]diazepin-2-ylamino)-3-methoxy-N-(2-(1-methyl-1H-imidazo-5-yl)ethyl)benzamide], the Ki is < 10 nM.

Regarding `COc1cc(C(=O)NCCCN2CCN(C)CC2)ccc1Nc1ncc2c(n1)N(C1CCCC1)CC(C)(C)C(=O)N2C` [Compound I-28, 4-(9-cyclopentyl-6,7,8,9-tetrahydro-5,7,7-trimethyl-6-oxo-5H-pyrimido[4,5-b][1,4]diazepin-2-ylamino)-3-methoxy-N-(3-(4-methylpiperazin-1-yl)propyl)benzamide], the Ki was < 10 nM.

In turn, `CNC(=O)c1ccc(Nc2ncc3c(n2)N(C2CC2)CC(C)(C)C(=O)N3C)c(OC)c1` [Compound I-30, 4-(9-cyclopropyl-6,7,8,9-tetrahydro-5,7,7-trimethyl-6-oxo-5H-pyrimido[4,5-b][1,4]diazepin-2-ylamino)-3-methoxy-N-methylbenzamide] gave a Ki of 10 to 100 nM.

For the compound `COc1cc(C(=O)NCCc2cn(C)cn2)ccc1Nc1ncc2c(n1)N(C1CCCC1)CC(C)(C)C(=O)N2C` [Compound I-31, 4-(9-cyclopentyl-6,7,8,9-tetrahydro-5,7,7-trimethyl-6-oxo-5H-pyrimido[4,5-b][1,4]diazepin-2-ylamino)-3-methoxy-N-(2-(1-methyl-1H-imidazo-4-yl)ethyl)benzamide], the Ki was < 10 nM.

Regarding `COc1cc(C(=O)N2CC[C@H](F)C2)ccc1Nc1ncc2c(n1)N(C1CCCC1)CC(C)(C)C(=O)N2C` [Compound I-32, 9-Cyclopentyl-2-[4-((S)-3-fluoro-pyrrolidine-1-carbonyl)-2-methoxyphenylamino]-5,7,7-trimethyl-5,7,8,9-tetrahydropyrimido[4,5-b][1,4]diazepin-6-one], the inhibition constant Ki is < 10 nM.
